This test relates to Cy5-labeled 16 bp WC-helix (RNA, duplex) AGAGGGAAUUCCCUCU
The test can be described thus: microscale thermophoresis. The settings on record: 100 mM K+, 2 mM Mg2+; 10 mM HEPES pH 7.5, 0.5 mM EDTA, 0.1% Tween 20, 25 °C; 50 nM RNA; single-site fit. For orientation: MST reads how a fluorescent partner responds to local heating, with and without ligand.

`C[C@@H]1O[C@@H](OC[C@H]2O[C@@H](Oc3c(-c4ccc(O)c(O)c4)oc4cc(O)cc(O)c4c3=O)[C@H](O)[C@@H](O)[C@@H]2O)[C@H](O)[C@H](O)[C@H]1O`: the KD (as a rule, the concentration at which binding is half-saturated) was less than 0.1 nM.

Source of the values: paper PMC10298474 (2023).
